{
  "source": "patent US20120171396A1",
  "about": "“Drug suspension agent and method of manufacture thereof” (Beijing Zhongwei Shennong Chronic Desease Medicine Academe …, priority 2009, published 2012)",
  "key": {"[1]": {"test_system": "hyperuricemia mice", "test": "Pharmacodynamic test of hyperuricemia", "assay_type": "in vivo", "protocol": "Kunming male mice, weighing 24±2 g, are randomly divided into several groups, use i, g, once every day for 4 days, wherein the dosages administered to the saline group and the hyperuricemia model blank group are […] every day. IP potassium oxide hydrochloride for every hyperuricemia model blank group at 2 hours before blood sampling, and IP potassium oxide hydrochloride for test model group at 1 hour before the last using. At 2 hours after the last using, sample blood from the venous plexus behind the animal orbit to test the serum uric acid level."}, "[2]": {"test_system": "Kunming mice", "test": "Pharmacodynamic test of the cough-relieving effect (ammonia-induced cough)", "assay_type": "in vivo", "conditions": "1 hour after administering, control: codeine phosphate 4 mg/kg by gavage, test: hung", "protocol": "60 kunming mice, in half respectively male and female and weighing from 18 g to 20 g, are randomly divided into 5 groups based on the weight, each group comprises 12 rice. […] suspension agent is hung in the test group. Codeine phosphate with a dosage of 4 mg/kg is administered to the control group by gavage.\nFor the above two groups, at 1 hour after administering, absorb 0.2 ml ammonia (with a concentration of 25%-28%) by 1 ml injector and inject the ammonia into the tampon with the same weight thereof, and then quickly put the injected tampon together with the white rice into an inverse 500 ml beaker, and then record the number of animal coughing within 3 minutes. The obvious decrease of cough frequency is regarded as the index of the antitussive effect."}, "[3]": {"test_system": "patients with diabetes", "test": "Clinical curative effect of DHD on diabetes (diabetes kidney disease patients)", "assay_type": "in vivo, human", "parameters": "Blood glucose at 2 hours after the meal / Fasting blood glucose (FBG): unit not given here", "from_the_text": "1. The standard of selecting patients: All patients with diabetes are in accordance with WHO diabetes diagnostic criteria. Select 18 cases of urine protein, renal function and two groups with the matching developing speeds of renal function injury within one year from diabetes kidney disease patients (DN). […] Once patients are selected, other drugs related to sugar, fat metabolism are stopped administering, diet control and proper exercise therapy are continued. Test fasting blood glucose and blood glucose at 2 hours after the meal every week. After stabilizing the blood glucose, experimental treatment is performed, the treatment group uses DHD, once every day, four hours every time. […] 3. Results: By statistic treatment, clinical curative effects between the two groups are tested by Ridit, and observation indexes between the two groups and within every group before and after treatment are tested by t-test. Marked: […] Effective: […]"}, "[4]": {"test_system": "gastric and duodenal ulcer patients", "test": "Clinical observation of NHD on gastric and duodenal ulcer patients", "assay_type": "in vivo, human", "protocol": "1. Case selection: Selected 80 inpatients are in accordance with gastric and duodenal ulcer diagnostic criteria. The inpatients are randomly divided into two groups. […] 2. Method of treatment: […] The course of treatment is one month. After two months, review by gastroscopy. Omeprazole is used in the control group by oral administration once every day, one piece every time (20 mg), the course of treatment is the same. 3. Observation items: ulcer surface (regarding results tested by gastroscope as standard), partial clinical symptoms (such as abdominal pain and acid reflux) 4. Curative effect evaluation standard: referring to Chinese national diagnostic curative effect standard."}, "[5]": {"test_system": "male Prostatic hyperplasia patients", "test": "Clinical curative effects of PHD on male Prostatic hyperplasia", "assay_type": "in vivo, human", "from_the_text": "Case selection: 72 patients, male, wherein 53 cases with the age of 60-69 years old, 16 cases with the age of 70-79 years old, 3 cases with the age of 80-89 years old. The longest course of disease is 11 years, the shortest is 3 months. There are 6 cases with the course of disease smaller than one year, 48 cases with the course of disease in the range of 1-4 years, 14 cases with the course of disease in the range of 5-10 years, 4 cases with the course of disease bigger than 10 years. There are 12 cases with prostate enlargement I-degree, 44 cases with prostate enlargement II-degree, and 16 cases with prostate enlargement III-degree. There are 4 cases integrated with bladder stones, and 6 cases with urinary infection.\nObservation method: based on the ages of patients, course of disease and state of illness, patients are divided into two groups.\n(1) The control group comprises 36 patients, administered with finasteride tablet, one every time, one time every day, oral administration.\n(2) The treatment group comprises 36 patients, administered with PHD, four hours every time, one time every day, hanging.\nObserve patients' symptoms before and after administration which mainly includes frequent urination at night, difficult urinating, urination becoming thinner, drop after urination, micturition pain, and urgent urination. No, light, medium, heavy symptoms are scored 0, 1, 2, 3 respectively. Observe integral changes before and after treatment. Rectal touch and B ultra examination are made to observe the recovery condition of prostate enlargement.\nBased on the ratio of the integral difference of local symptom before administration to that after administration and the condition of prostate recovery, curative effects are evaluated. If healing, the integral ratio is 1, and prostate enlargement is back to normal. […] If effective, the integral ratio is in the range of ⅔ to ⅓, and prostate enlargement is improved. If invalid, the integral ration is smaller than ⅓, and prostate enlargement has no change."}, "[6]": {"conditions": "12 weeks, DHD versus Gliquidone"}, "[7]": {"conditions": "of healed cases (14 NHD, 6 Omeprazole), time unit not given"}, "[8]": {"conditions": "treat group 50 cases NHD, control group 30 cases Omeprazole 20 mg oral"}, "[9]": {"conditions": "36 cases per group, PHD versus finasteride tablet"}},
  "data": [
    {"smiles": "Oc1ncnc2[nH]ncc12", "note": "[Allopurinol]", "values": [
      {"measurement": "Serum uric acid level of mice (mg/100 ml)", "setting": "[1]; hyperuricemia mice, 2 hours after the last using, 4 days, Allopurinol dosage 10", "result": "7.46 ± 0.17", "unit": "mg/100 ml"},
      {"measurement": "effect on serum uric acid level of normal mice", "setting": "[1]; normal mice, in words", "result": "can reduce the serum uric acid level of normal mice"}
    ]},
    {"smiles": "COc1ccc2c3c1O[C@H]1[C@@H](O)C=C[C@H]4[C@@H](C2)N(C)CC[C@@]341", "note": "[Codeine phosphate]", "values": [
      {"measurement": "inhibition at 4 mg/kg", "setting": "[2]; Mus musculus, po, read-out: Cough inhibition Rate (%)", "result": 67.3, "unit": "%"},
      {"measurement": "Cough Frequency", "setting": "[2]; number of coughing within 3 minutes", "result": "11.2 ± 4.8"}
    ]},
    {"smiles": "COc1ccc2c(c1)C(=O)N(CCc1ccc(S(=O)(=O)NC(=O)NC3CCCCC3)cc1)C(=O)C2(C)C", "note": "[Gliquidone]", "values": [
      {"measurement": "Blood glucose at 2 hours after the meal: Effective (cases)", "setting": "[3]; [6]", "result": 6},
      {"measurement": "Blood glucose at 2 hours after the meal: Invalid (cases)", "setting": "[3]; [6]", "result": 0},
      {"measurement": "Blood glucose at 2 hours after the meal: Marked (cases)", "setting": "[3]; [6]", "result": 4},
      {"measurement": "Blood glucose at 2 hours after the meal: Total efficient rate", "setting": "[3]; [6]", "result": 100.0},
      {"measurement": "Fasting blood glucose (FBG): Effective (cases)", "setting": "[3]; [6]", "result": 6},
      {"measurement": "Fasting blood glucose (FBG): Invalid (cases)", "setting": "[3]; [6]", "result": 1},
      {"measurement": "Fasting blood glucose (FBG): Total efficient rate", "setting": "[3]; [6]", "result": 90.0},
      {"measurement": "Fasting blood glucose (FBG): Marked (cases)", "setting": "[3]; 12 weeks, treatment group DHD four hours/day, control group Gliquidone 30 mg increased to 90 mg", "result": 3},
      {"measurement": "Blood glucose at 2 hours after the meal", "setting": "[3]; After treating 2 weeks", "result": 17.48},
      {"measurement": "Fasting blood glucose (FBG)", "setting": "[3]; After treating 2 weeks", "result": 9.99},
      {"measurement": "Blood glucose at 2 hours after the meal", "setting": "[3]; After treating 4 weeks", "result": 12.77},
      {"measurement": "Fasting blood glucose (FBG)", "setting": "[3]; After treating 4 weeks", "result": 9.27},
      {"measurement": "Blood glucose at 2 hours after the meal", "setting": "[3]; After treating 8 weeks", "result": 10.07},
      {"measurement": "Fasting blood glucose (FBG)", "setting": "[3]; After treating 8 weeks", "result": 8.43},
      {"measurement": "BUN", "setting": "[3]; After treating (12 weeks)", "result": "9.2 ± 0.6", "unit": "mmol/L"},
      {"measurement": "Blood glucose at 2 hours after the meal", "setting": "[3]; After treating (12 weeks)", "result": 9.21},
      {"measurement": "Fasting blood glucose (FBG)", "setting": "[3]; After treating (12 weeks)", "result": 7.62},
      {"measurement": "Scr", "setting": "[3]; After treating (12 weeks)", "result": "250.9 ± 49.3", "unit": "µmol/L"},
      {"measurement": "Urine protein", "setting": "[3]; After treating (12 weeks)", "result": "6.0 ± 2.7"},
      {"measurement": "BUN", "setting": "[3]; Before treating", "result": "9.5 ± 0.7", "unit": "mmol/L"},
      {"measurement": "Blood glucose at 2 hours after the meal", "setting": "[3]; Before treating", "result": 14.79},
      {"measurement": "Fasting blood glucose (FBG)", "setting": "[3]; Before treating", "result": 10.72},
      {"measurement": "Scr", "setting": "[3]; Before treating", "result": "251.3 ± 54.6", "unit": "µmol/L"},
      {"measurement": "Urine protein", "setting": "[3]; Before treating", "result": "6.2 ± 2.5"}
    ]},
    {"smiles": "COc1ccc2[nH]c([S+]([O-])Cc3ncc(C)c(OC)c3C)nc2c1", "note": "(centres unmarked) [Omeprazole]", "values": [
      {"measurement": "needed time for curing diseases: cases healed at course of treatment 6", "setting": "[4]; [7]", "result": 0},
      {"measurement": "needed time for curing diseases: cases healed at course of treatment 7", "setting": "[4]; [7]", "result": 0},
      {"measurement": "needed time for curing diseases: cases healed at course of treatment 8", "setting": "[4]; [7]", "result": 2},
      {"measurement": "needed time for curing diseases: cases healed at course of treatment 9", "setting": "[4]; [7]", "result": 4},
      {"measurement": "Healing (cases)", "setting": "[4]; treat group 50 cases NHD hung 5 hours/day, control group 30 cases Omeprazole 20 mg oral once daily", "result": 6},
      {"measurement": "Invalid effect (cases)", "setting": "[4]; [8]", "result": 5},
      {"measurement": "Marked effect (cases)", "setting": "[4]; [8]", "result": 6},
      {"measurement": "Total efficient rate (%)", "setting": "[4]; [8]", "result": 83.3, "unit": "%"},
      {"measurement": "Turning better (cases)", "setting": "[4]; [8]", "result": 13}
    ]},
    {"smiles": "CC(C)(C)NC(=O)[C@H]1CC[C@H]2[C@@H]3CC[C@H]4NC(=O)C=C[C@]4(C)[C@H]3CC[C@]12C", "note": "[finasteride tablet, finasteride]", "values": [
      {"measurement": "Effective (cases)", "setting": "[5]; [9]", "result": 6},
      {"measurement": "Invalid (cases)", "setting": "[5]; [9]", "result": 16},
      {"measurement": "Marked (cases)", "setting": "[5]; [9]", "result": 10},
      {"measurement": "Total efficient rate", "setting": "[5]; [9]", "result": 52.78, "unit": "%"},
      {"measurement": "total effective cases", "setting": "[5]; [9]", "result": 26, "unit": "cases"},
      {"measurement": "Healing (cases)", "setting": "[5]; 36 cases per group, treatment PHD hung four hours daily, control finasteride tablet oral once daily", "result": 4},
      {"measurement": "Integral values of local symptoms before and after administration", "setting": "[5]; in words, control P>0.05, treatment P<0.001", "result": "significant differences"}
    ]}
  ]
}
